Source: US9340507B2, “Substituted 4-pyridones and their use as inhibitors of neutrophil elastase activity” (Boehringer Ingelheim International GmbH, priority 2012, dated 2016)

These compounds were tested against Human neutrophil elastase (Homo sapiens (Human), UniProt P08246) (assay: Human Neutrophil Elastase Assay). Details: substrate MeOSuc-Ala-Ala-Pro-Val-AMC 250 μM, pH 7.5, fluorescence.
Assay type: biochemical
Protocol: Human Neutrophil Elastase Assay
All other materials were of the highest grade commercially available.
The following buffers were used: Compound buffer: 100 mM Tris, 500 mM NaCl, adjusted to pH 7.5; Assay buffer: 100 mM Tris, 500 mM NaCl, adjusted to pH 7.5, containing 0.01% BSA.
Assay conditions: Test compounds were prediluted in DMSO and subsequently in compound buffer (5% DMSO final). […] After inactivation of the enzyme, fluorescence intensities were measured at 380 nm excitation and 460 nm emission wavelengths.
Each plate contains wells with a high value control (DMSO+enzyme+substrate) and wells with a low value control (DMSO+inactivated enzyme+substrate). IC50 values were estimated using a sigmoidal concentration response curve with variable slope. Means of low values were taken as 0%, means of high values as 100%. IC50 values of selected compound in the Neutrophil Elastase assay: […]

Human neutrophil elastase, sequence (P08246 30-267): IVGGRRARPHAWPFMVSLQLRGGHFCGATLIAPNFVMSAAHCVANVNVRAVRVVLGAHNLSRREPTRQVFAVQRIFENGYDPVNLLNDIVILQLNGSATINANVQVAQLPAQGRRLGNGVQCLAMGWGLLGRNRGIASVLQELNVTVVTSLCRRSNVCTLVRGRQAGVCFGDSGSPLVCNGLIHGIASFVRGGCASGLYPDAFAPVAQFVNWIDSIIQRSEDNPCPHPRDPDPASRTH

Row | SMILES | IC50 [nM]
1 | CC[C@H](C)n1cc(C(=O)NCc2ccc(S(C)(=O)=O)cn2)c(=O)c(-c2ccnc(C(F)(F)F)c2)c1C [Example 20.3, (S)-1-sec-Butyl-2-methyl-4-oxo-2′-trifluoromethyl-1,4-dihydro-[3,4]bipyridinyl-5-carboxylic acid (5-methanesulfonyl-pyridin-2-ylmethyl)-amide] | 63
2 | COCCn1cc(C(=O)NCc2ccc(S(C)(=O)=O)cn2)c(=O)c(-c2cccc(C(F)(F)F)c2)c1C [Example 21, 1-(2-Methoxy-ethyl)-6-methyl-4-oxo-5-(3-trifluoromethyl-phenyl)-1,4-dihydro-pyridine-3-carboxylic acid (5-methanesulfonyl-pyridin-2-ylmethyl)-amide] | 43
3 | Cc1c(-c2cccc(C(F)(F)F)c2)c(=O)c(C(=O)NCc2ccc(S(C)(=O)=O)cn2)cn1C1CCOC1 (centres unmarked) [Example 22, 6-Methyl-4-oxo-1-(tetrahydro-furan-3-yl)-5-(3-trifluoromethyl-phenyl)-1,4-dihydro-pyridine-3-carboxylic acid (5-methanesulfonyl-pyridin-2-ylmethyl)-amide] | 27
4 | CCC(CC)n1cc(C(=O)NCc2ccc(S(C)(=O)=O)cn2)c(=O)c(-c2cccc(C(F)(F)F)c2)c1C [Example 23.1, 1-(1-Ethyl-propyl)-6-methyl-4-oxo-5-(3-trifluoromethyl-phenyl)-1,4-dihydro-pyridine-3-carboxylic acid (5-methanesulfonyl-pyridin-2-ylmethyl)-amide] | 12
5 | CCC(CC)n1cc(C(=O)NCc2ccc(S(C)(=O)=O)cn2)c(=O)c(-c2cccc(C(F)F)c2)c1C [Example 23.2, 5-(3-Difluoromethyl-phenyl)-1-(1-ethyl-propyl)-6-methyl-4-oxo-1,4-dihydro-pyridine-3-carboxylic acid (5-methanesulfonyl-pyridin-2-ylmethyl)-amide] | 5
6 | CCC(CC)n1cc(C(=O)NCc2ccc(S(C)(=O)=O)cn2)c(=O)c(-c2ccnc(C(F)(F)F)c2)c1C [Example 23.3, 1-(1-Ethyl-propyl)-2-methyl-4-oxo-2′-trifluoromethyl-1,4-dihydro-[3,4]bipyridinyl-5-carboxylic acid (5-methanesulfonyl-pyridin-2-ylmethyl)-amide] | 46
7 | Cc1nnc(CNC(=O)c2cn(C3CCC3)c(C)c(-c3cccc(C(F)(F)F)c3)c2=O)o1 [Example 24.1, 1-Cyclobutyl-6-methyl-4-oxo-5-(3-trifluoromethyl-phenyl)-1,4-dihydro-pyridine-3-carboxylic acid (5-methyl-[1,3,4]oxadiazol-2-ylmethyl)-amide] | 57
8 | Cc1nnc(CNC(=O)c2cn(C3CCC3)c(C)c(-c3cccc(C(F)F)c3)c2=O)o1 [Example 24.2, 1-Cyclobutyl-5-(3-difluoromethyl-phenyl)-6-methyl-4-oxo-1,4-dihydro-pyridine-3-carboxylic acid (5-methyl-[1,3,4]oxadiazol-2-ylmethyl)-amide] | 55
9 | CC[C@H](C)n1cc(C(=O)NCc2nnc(C)o2)c(=O)c(-c2cccc(C(F)F)c2)c1C [Example 26, (S)-1-sec-Butyl-5-(3-difluoromethyl-phenyl)-6-methyl-4-oxo-1,4-dihydro-pyridine-3-carboxylic acid (5-methyl-[1,3,4]oxadiazol-2-ylmethyl)-amide] | 22

Now from value to compound:

Row | IC50 [nM] | SMILES
10 | 37 | CC[C@@H](C)n1cc(C(=O)NCc2nnc(C)o2)c(=O)c(-c2cccc(C(F)(F)F)c2)c1C [Example 25.1, (R)-1-sec-Butyl-6-methyl-4-oxo-5-(3-trifluoromethyl-phenyl)-1,4-dihydro-pyridine-3-carboxylic acid (5-methyl-[1,3,4]oxadiazol-2-ylmethyl)-amide]
11 | 30 | CC[C@@H](C)n1cc(C(=O)NCc2nnc(C)o2)c(=O)c(-c2cccc(C(F)F)c2)c1C [Example 25.2, (R)-1-sec-Butyl-5-(3-difluoromethyl-phenyl)-6-methyl-4-oxo-1,4-dihydro-pyridine-3-carboxylic acid (5-methyl-[1,3,4]oxadiazol-2-ylmethyl)-amide]
12 | 51 | Cc1c(-c2ccnc(C(F)(F)F)c2)c(=O)c(C(=O)NCc2ccc([S+](C)[O-])cc2)cn1C(C)C (centres unmarked) [Example 27.2, 1-Isopropyl-2-methyl-4-oxo-2′-trifluoromethyl-1,4-dihydro-[3,4′]bipyridinyl-5-carboxylic acid 4-methanesulfinyl-benzylamide]
13 | 7 | Cc1cc(CNC(=O)c2cn(C(C)C)c(C)c(-c3cccc(C(F)(F)F)c3)c2=O)ccc1S(C)(=O)=O [Example 28.1, 1-Isopropyl-6-methyl-4-oxo-5-(3-trifluoromethyl-phenyl)-1,4-dihydro-pyridine-3-carboxylic acid 4-methanesulfonyl-3-methyl-benzylamide]
14 | 6 | Cc1cc(CNC(=O)c2cn(C(C)C)c(C)c(-c3cccc(C(F)F)c3)c2=O)ccc1S(C)(=O)=O [Example 28.2, 5-(3-Difluoromethyl-phenyl)-1-isopropyl-6-methyl-4-oxo-1,4-dihydro-pyridine-3-carboxylic acid 4-methanesulfonyl-3-methyl-benzylamide]
15 | 27 | Cc1cc(CNC(=O)c2cn(C(C)C)c(C)c(-c3ccnc(C(F)(F)F)c3)c2=O)ccc1S(C)(=O)=O [Example 28.3, 1-Isopropyl-2-methyl-4-oxo-2′-trifluoromethyl-1,4-dihydro-[3,4]bipyridinyl-5-carboxylic acid 4-methanesulfonyl-3-methyl-benzylamide]
16 | 4 | Cc1c(-c2cccc(C(F)(F)F)c2)c(=O)c(C(=O)NCc2ccc3c(c2)CCS3(=O)=O)cn1C(C)C [Example 29.1, 1-Isopropyl-6-methyl-4-oxo-5-(3-trifluoromethyl-phenyl)-1,4-dihydro-pyridine-3-carboxylic acid (1,1-dioxo-2,3-dihydro-1H-1λ^6-benzo[b]thiophen-5-ylmethyl)-amide]
17 | 3 | Cc1c(-c2cccc(C(F)F)c2)c(=O)c(C(=O)NCc2ccc3c(c2)CCS3(=O)=O)cn1C(C)C [Example 29.2, 5-(3-Difluoromethyl-phenyl)-1-isopropyl-6-methyl-4-oxo-1,4-dihydro-pyridine-3-carboxylic acid (1,1-dioxo-2,3-dihydro-1H-1λ^6-benzo[b]thiophen-5-ylmethyl)-amide]
18 | 15 | Cc1c(-c2ccnc(C(F)(F)F)c2)c(=O)c(C(=O)NCc2ccc3c(c2)CCS3(=O)=O)cn1C(C)C [Example 29.3, 1-Isopropyl-2-methyl-4-oxo-2′-trifluoromethyl-1,4-dihydro-[3,4]bipyridinyl-5-carboxylic acid (1,1-dioxo-2,3-dihydro-1H-1λ^6-benzo[b]thiophen-5-ylmethyl)-amide]
19 | 13 | CCS(=O)(=O)c1ccc(CNC(=O)c2cn(C(C)C)c(C)c(-c3cccc(C(F)(F)F)c3)c2=O)cc1 [Example 30.1, 1-Isopropyl-6-methyl-4-oxo-5-(3-trifluoromethyl-phenyl)-1,4-dihydro-pyridine-3-carboxylic acid 4-ethanesulfonyl-benzylamide]
20 | 11 | CCc1c(-c2cccc(C(F)(F)F)c2)c(=O)c(C(=O)NCc2ccc(S(=O)(=O)CC)cc2)cn1C(C)C [Example 30.2, 6-Ethyl-1-isopropyl-4-oxo-5-(3-trifluoromethyl-phenyl)-1,4-dihydro-pyridine-3-carboxylic acid 4-ethanesulfonyl-benzylamide]
